In publication PMC8445441, “Elucidating the mechanism by which synthetic helper peptides sensitize Pseudomonas aeruginosa to multiple antibiotics” (PLoS Pathogens, 2021):
Several values for one entry are separate records, joined by “and”; a condition that tells them apart may be missing. Identical values can stand only once. Like-named read-outs stand apart in the source and are kept apart here. Values belong to the compound of their own block, whether it stands above or below them. Positions of bridges follow the written chain, without caps; N, C: chain ends. Non-standard residues stand in square brackets, D forms with d. Residues, ends and D or L forms follow the SMILES beside them. *: point of attachment. Ileψ(thiazoline)Cys = CC[C@H](C)[C@H](N)C1=N[C@H](C(=O)*)CS1; dOrn = NCCC[C@@H](N)C(=O)O

Key:
[1] = tested on: clinical P. aeruginosa isolates; assay: microbe, parasite or virus in culture; settings: antibiotic alone; for MIC: Pseudomonas aeruginosa, 18 h
Method: The bacterial strains, primers and plasmids used in this study are listed in S5 Table. […] Bacteria were cultured in LB medium or cation-adjusted Muller-Hinton broth (CA-MHB) at 37 °C with agitation at 220 rpm. All the antibiotics and chemical compounds used in this study were purchased from Sigma-Aldrich.
(§1) The MIC tests were performed in triplicate using broth microdilution in accordance with Clinical and Laboratory Standards Institute (CLSI) recommendations (http://iacld.ir/DL/public/CLSI-2018-M100-S28.pdf). Briefly, drugs were two-fold diluted in MHB and mixed with an equal volume of bacterial suspensions containing approximately 1 × 10^6 CFU/mL in 96-well microliter plate. After 18 h incubation at 37 °C, the MIC values were defined as the lowest concentrations of antibiotics with no visible growth of bacteria. […] Otherwise, 1/4 MIC of the peptide was used in the combination. […] If needed, membrane compounds PG, PE, PC, CL or LPS, or membrane stabilizers MgCl2 or CaCl2, or efflux pumps inhibitor PAβN were added to the broth medium to clarify the effect of other substances on the synergy between peptide and antibiotics. All the tests were performed in triplicate.

P. aeruginosa PAO1 = assay: microbe, parasite or virus in culture; settings: PAO1; for FICI / MICac: the MIC for the antibiotic in the combination / MICa: the MIC of antibiotics: S3 Table; for MICa: the MIC of antibiotics / MIC: antibiotic alone; for MIC: Pseudomonas aeruginosa, PAO1, 18 h, read-out: MICa: the MIC of antibiotics, S3 Table
Method: as §1
The fractional inhibitory concentration (FIC) indices were calculated using the previously described formula FICI = FICa + FICb = MICac/MICa + MICbc/MICb. The FICI was interpreted according to EUCAST [65] as follows: synergistic, FICI≤0.5; additive, 0.5<FICI≤1; indifferent, 1<FICI<2; antagonistic, FICI ≥2. For the FICI calculations, twice the highest concentration tested was used in the cases where the MIC was not reached.

[2] = read-out: Antibiotic sensibility (MIC) of clinical P. aeruginosa isolate AUMC-Pa-1, strain AUMC-Pa-1
[3] = read-out: Antibiotic sensibility (MIC) of clinical P. aeruginosa isolate AUMC-Pa-2, strain AUMC-Pa-2
[4] = read-out: Antibiotic sensibility (MIC) of clinical P. aeruginosa isolate AUMC-Pa-3, strain AUMC-Pa-3
[5] = read-out: Antibiotic sensibility (MIC) of clinical P. aeruginosa isolate AUMC-Pa-4, strain AUMC-Pa-4
[6] = read-out: Antibiotic sensibility (MIC) of clinical P. aeruginosa isolate AUMC-Pa-5, strain AUMC-Pa-5
[7] = read-out: Antibiotic sensibility (MIC) of clinical P. aeruginosa isolate AUMC-Pa-6, strain AUMC-Pa-6
[8] = read-out: Antibiotic sensibility (MIC) of clinical P. aeruginosa isolate HM-214, strain HM-214
[9] = read-out: Antibiotic sensibility (MIC) of clinical P. aeruginosa isolate NR-31040, strain NR-31040
[10] = read-out: Antibiotic sensibility (MIC) of clinical P. aeruginosa isolate NR-31041, strain NR-31041

MIC [1, 2]: > 128 µM | MIC [1, 3]: > 128 µM | MIC [1, 4]: > 128 µM | MIC [1, 5]: > 128 µM | MIC [1, 6]: > 128 µM | MIC [1, 7]: > 128 µM | MIC [1, 8]: > 128 µM | MIC [1, 9]: > 128 µM | MIC [1, 10]: > 128 µM | MIC (P. aeruginosa PAO1): > 128 µM | MICac: the MIC for the antibiotic in the combination (P. aeruginosa PAO1; with 2 μM D-11): >128/>128 μM | MICac: the MIC for the antibiotic in the combination (P. aeruginosa PAO1; with 4 μM D-11): >128/>128 μM
Compound: CC1(C)S[C@@H]2[C@H](NC(=O)[C@H](N)c3ccc(O)cc3)C(=O)N2[C@H]1C(=O)O [Amoxicin, Amoxicillin]
FICI (P. aeruginosa PAO1; antibiotic + 4 μM D-11): 1.125

MIC [1, 2]: > 128 µM | MIC [1, 3]: > 128 µM | MIC [1, 4]: > 128 µM | MIC [1, 5]: > 128 µM | MIC [1, 6]: > 128 µM | MIC [1, 7]: > 128 µM | MIC [1, 8]: > 128 µM | MIC [1, 9]: > 128 µM | MIC [1, 10]: > 128 µM | MIC (P. aeruginosa PAO1): > 128 µM | MICac: the MIC for the antibiotic in the combination (P. aeruginosa PAO1; with 2 μM D-11): >128/>128 μM | MICac: the MIC for the antibiotic in the combination (P. aeruginosa PAO1; with 4 μM D-11): >128/>128 μM
Compound: CC1(C)S[C@@H]2[C@H](NC(=O)[C@H](N)c3ccccc3)C(=O)N2[C@H]1C(=O)O [Ampicillin]
FICI (P. aeruginosa PAO1; antibiotic + 4 μM D-11): 1.125

Continued, compound first:

Compound: NCC[C@H](O)C(=O)N[C@@H]1C[C@H](N)[C@@H](O[C@H]2O[C@H](CN)[C@@H](O)[C@H](O)[C@H]2O)[C@H](O)[C@H]1O[C@H]1O[C@H](CO)[C@@H](O)[C@H](N)[C@H]1O [Amikacin]
MIC [1, 2]: 1 µM | MIC [1, 3]: 0.25 µM | MIC [1, 4]: 0.0625 µM | MIC [1, 5]: 1 µM | MIC [1, 6]: 1 µM | MIC [1, 7]: 2 µM | MIC [1, 8]: 1 µM | MIC [1, 9]: 4 µM | MIC [1, 10]: 2 µM | FICI (P. aeruginosa PAO1; antibiotic + 2 μM D-11): 1.063 | FICI (P. aeruginosa PAO1; antibiotic + 4 μM D-11): 2.125 | MICac: the MIC for the antibiotic in the combination (P. aeruginosa PAO1; with 2 μM D-11): 1/1 μM | MICac: the MIC for the antibiotic in the combination (P. aeruginosa PAO1; with 4 μM D-11): 2 µM | MICa: the MIC of antibiotics (P. aeruginosa PAO1): 1/1 μM and 1 μM

Compound: CC[C@H](C)[C@H](N)C1=N[C@H](C(=O)N[C@@H](CC(C)C)C(=O)N[C@H](CCC(=O)O)C(=O)N[C@H](C(=O)N[C@H]2CCCCNC(=O)[C@H](CC(N)=O)NC(=O)[C@@H](CC(=O)O)NC(=O)[C@H](Cc3cnc[nH]3)NC(=O)[C@@H](Cc3ccccc3)NC(=O)[C@H]([C@@H](C)CC)NC(=O)[C@@H](CCCN)NC2=O)[C@@H](C)CC)CS1 [Bacitracin] ({Ileψ(thiazoline)Cys}-L[dE]IK[dOrn]I[dF]H[dD]N; lactam 4-C (inferred); N-terminus assumed)
Antibiotic sensibility (MIC) of clinical P. aeruginosa isolate AUMC-Pa-1 ([1]; strain AUMC-Pa-1): >128 µM | Antibiotic sensibility (MIC) of clinical P. aeruginosa isolate AUMC-Pa-2 ([1]; strain AUMC-Pa-2): >128 µM | Antibiotic sensibility (MIC) of clinical P. aeruginosa isolate AUMC-Pa-3 ([1]; strain AUMC-Pa-3): >128 µM | Antibiotic sensibility (MIC) of clinical P. aeruginosa isolate AUMC-Pa-4 ([1]; strain AUMC-Pa-4): >128 µM | Antibiotic sensibility (MIC) of clinical P. aeruginosa isolate AUMC-Pa-5 ([1]; strain AUMC-Pa-5): >128 µM | Antibiotic sensibility (MIC) of clinical P. aeruginosa isolate AUMC-Pa-6 ([1]; strain AUMC-Pa-6): >128 µM | Antibiotic sensibility (MIC) of clinical P. aeruginosa isolate HM-214 ([1]; strain HM-214): >128 µM | Antibiotic sensibility (MIC) of clinical P. aeruginosa isolate NR-31040 ([1]; strain NR-31040): >128 µM | Antibiotic sensibility (MIC) of clinical P. aeruginosa isolate NR-31041 ([1]; strain NR-31041): >128 µM | FICI (P. aeruginosa PAO1; antibiotic + 2 μM D-11): 1.063 | FICI (P. aeruginosa PAO1; antibiotic + 4 μM D-11): 1.125 | MICac: the MIC for the antibiotic in the combination (P. aeruginosa PAO1; with 2 μM D-11): >128/>128 μM | MICac: the MIC for the antibiotic in the combination (P. aeruginosa PAO1; with 4 μM D-11): >128/>128 μM | MICa: the MIC of antibiotics (P. aeruginosa PAO1): >128/>128 μM

Compound: CO/N=C(\C(=O)N[C@@H]1C(=O)N2C(C(=O)[O-])=C(C[N+]3(C)CCCC3)CS[C@H]12)c1csc(N)n1 [Cefepime]
MIC [1, 2]: 8 µM | MIC [1, 3]: 0.5 µM | MIC [1, 4]: 2 µM | MIC [1, 5]: 2 µM | MIC [1, 6]: 4 µM | MIC [1, 7]: 4 µM | MIC [1, 8]: 128 µM | MIC [1, 9]: 4 µM | MIC [1, 10]: 16 µM | FICI (P. aeruginosa PAO1; antibiotic + 2 μM D-11): 0.563 | FICI (P. aeruginosa PAO1; antibiotic + 4 μM D-11): 0.625 | MICac: the MIC for the antibiotic in the combination (P. aeruginosa PAO1; with 2 μM D-11): 1 µM | MICac: the MIC for the antibiotic in the combination (P. aeruginosa PAO1; with 4 μM D-11): 1 µM | MICa: the MIC of antibiotics (P. aeruginosa PAO1): 2 µM
